Reference: the NIST ThermoML archive (doi:10.1016/j.jct.2017.07.016)
Numbers after ± are expanded uncertainties.

Assay: xn = mol fraction of the nth substance listed
Details: 96.7 kPa, Liquid; for mass density: Vibrating tube method; for viscosity: Capillary tube (Ostwald / Ubbelohde) method

## CCCCCCn1cc[n+](C)c1.[Cl-] [1-hexyl-3-methylimidazolium chloride] + c1ccncc1
328.15 K, x1 = 0.145
  mass density: 979.27 ± 2.1 kg/m3
328.15 K, x1 = 0.281
  mass density: 994.88 ± 2 kg/m3
328.15 K, x1 = 0.369
  mass density: 1001.86 ± 2 kg/m3
328.15 K, x1 = 0.477
  mass density: 1008.64 ± 2 kg/m3
328.15 K, x1 = 0.608
  mass density: 1013.48 ± 2.1 kg/m3
328.15 K, x1 = 0.778
  mass density: 1018.31 ± 2.1 kg/m3
328.15 K, x1 = 0.877
  mass density: 1020.12 ± 2.1 kg/m3
328.15 K, x1 = 1
  mass density: 1021.92 ± 2.2 kg/m3
333.15 K, x1 = 0.145
  viscosity: 1.956 ± 0.3 mPa·s
  mass density: 975.09 ± 2.1 kg/m3
333.15 K, x1 = 0.281
  viscosity: 5.738 ± 0.87 mPa·s
  mass density: 991.21 ± 2 kg/m3
333.15 K, x1 = 0.369
  viscosity: 10.23 ± 1.6 mPa·s
  mass density: 998.39 ± 2 kg/m3
333.15 K, x1 = 0.477
  viscosity: 24.13 ± 3.7 mPa·s
  mass density: 1005.4 ± 2 kg/m3
333.15 K, x1 = 0.608
  viscosity: 53.7 ± 8.2 mPa·s
  mass density: 1010.39 ± 2 kg/m3
333.15 K, x1 = 0.778
  viscosity: 141.51 ± 21 mPa·s
  mass density: 1015.38 ± 2.1 kg/m3
333.15 K, x1 = 0.877
  viscosity: 203.81 ± 31 mPa·s
  mass density: 1017.26 ± 2.1 kg/m3
333.15 K, x1 = 1
  viscosity: 453.59 ± 70 mPa·s
  mass density: 1019.13 ± 2.2 kg/m3
338.15 K, x1 = 0.145
  viscosity: 1.793 ± 0.28 mPa·s
  mass density: 970.94 ± 2.1 kg/m3
338.15 K, x1 = 0.281
  viscosity: 5.141 ± 0.78 mPa·s
  mass density: 987.55 ± 2 kg/m3
338.15 K, x1 = 0.369
  viscosity: 8.972 ± 1.4 mPa·s
  mass density: 994.92 ± 2 kg/m3
338.15 K, x1 = 0.477
  viscosity: 20.39 ± 3.1 mPa·s
  mass density: 1002.17 ± 2 kg/m3
338.15 K, x1 = 0.608
  viscosity: 43.75 ± 6.7 mPa·s
  mass density: 1007.32 ± 2 kg/m3
338.15 K, x1 = 0.778
  viscosity: 109.4 ± 17 mPa·s
  mass density: 1012.47 ± 2.1 kg/m3
338.15 K, x1 = 0.877
  viscosity: 154.83 ± 24 mPa·s
  mass density: 1014.43 ± 2.1 kg/m3
338.15 K, x1 = 1
  viscosity: 327.52 ± 50 mPa·s
  mass density: 1016.38 ± 2.2 kg/m3
343.15 K, x1 = 0.145
  viscosity: 1.686 ± 0.26 mPa·s
  mass density: 966.81 ± 2.1 kg/m3
343.15 K, x1 = 0.281
  viscosity: 4.636 ± 0.7 mPa·s
  mass density: 983.89 ± 2 kg/m3
343.15 K, x1 = 0.369
  viscosity: 7.907 ± 1.2 mPa·s
  mass density: 991.46 ± 2 kg/m3
343.15 K, x1 = 0.477
  viscosity: 17.36 ± 2.6 mPa·s
  mass density: 998.94 ± 2 kg/m3
343.15 K, x1 = 0.608
  viscosity: 35.95 ± 5.5 mPa·s
  mass density: 1004.24 ± 2 kg/m3
343.15 K, x1 = 0.778
  viscosity: 86.53 ± 13 mPa·s
  mass density: 1009.55 ± 2.1 kg/m3
343.15 K, x1 = 0.877
  viscosity: 120.81 ± 18 mPa·s
  mass density: 1011.6 ± 2.1 kg/m3
343.15 K, x1 = 1
  viscosity: 243.04 ± 37 mPa·s
  mass density: 1013.65 ± 2.2 kg/m3
348.15 K, x1 = 0.145
  viscosity: 1.57 ± 0.24 mPa·s
  mass density: 962.62 ± 2.1 kg/m3
348.15 K, x1 = 0.281
  viscosity: 4.198 ± 0.64 mPa·s
  mass density: 980.23 ± 2 kg/m3
348.15 K, x1 = 0.369
  viscosity: 6.978 ± 1.1 mPa·s
  mass density: 988.01 ± 2 kg/m3
348.15 K, x1 = 0.477
  viscosity: 14.96 ± 2.3 mPa·s
  mass density: 995.69 ± 2 kg/m3
348.15 K, x1 = 0.608
  viscosity: 30.11 ± 4.6 mPa·s
  mass density: 1001.17 ± 2 kg/m3
348.15 K, x1 = 0.778
  viscosity: 68.87 ± 10 mPa·s
  mass density: 1006.66 ± 2.1 kg/m3
348.15 K, x1 = 0.877
  viscosity: 94.01 ± 14 mPa·s
  mass density: 1008.78 ± 2.1 kg/m3
348.15 K, x1 = 1
  viscosity: 183.45 ± 28 mPa·s
  mass density: 1010.91 ± 2.2 kg/m3
353.15 K, x1 = 0.145
  viscosity: 1.451 ± 0.22 mPa·s
  mass density: 958.42 ± 2.1 kg/m3
353.15 K, x1 = 0.281
  viscosity: 3.822 ± 0.58 mPa·s
  mass density: 976.57 ± 2 kg/m3
353.15 K, x1 = 0.369
  viscosity: 6.279 ± 0.96 mPa·s
  mass density: 984.56 ± 2 kg/m3
353.15 K, x1 = 0.477
  viscosity: 13 ± 2 mPa·s
  mass density: 992.4 ± 2 kg/m3
353.15 K, x1 = 0.608
  viscosity: 25.29 ± 3.8 mPa·s
  mass density: 998.08 ± 2 kg/m3
353.15 K, x1 = 0.778
  viscosity: 56.47 ± 8.5 mPa·s
  mass density: 1003.77 ± 2.1 kg/m3
353.15 K, x1 = 0.877
  viscosity: 75.17 ± 11 mPa·s
  mass density: 1005.97 ± 2.1 kg/m3
353.15 K, x1 = 1
  viscosity: 140.06 ± 21 mPa·s
  mass density: 1008.18 ± 2.2 kg/m3
